Laboratory results taken from patent US20080249077A1, “17.Beta.-Fluoromethoxycarbonyl-Androst-4-En-3-One Compounds With a 17.Alpha.-Carbonate Sustituent” (priority 2005, published 2008).

Key:
Type in all cases: cell-based
glucocorticoid receptor [1] = target: T1, glucocorticoid receptor (Homo sapiens, UniProt P04150); assay: Assay for transrepression activity of the glucocorticoid agonists (NF-κB responsive ELAM promoter-sPAP reporter, TNF-stimulated A549 cells); settings: compound 1 hour at 37° C., then TNF 10 ng/ml for 16 hours, read-out: pIC50 (transrepression) (converted)
T1 construct: A549 cells stably transfected with a reporter gene; endogenous in cells; host or cells: A549 cells
T1 sequence (P04150 1-777): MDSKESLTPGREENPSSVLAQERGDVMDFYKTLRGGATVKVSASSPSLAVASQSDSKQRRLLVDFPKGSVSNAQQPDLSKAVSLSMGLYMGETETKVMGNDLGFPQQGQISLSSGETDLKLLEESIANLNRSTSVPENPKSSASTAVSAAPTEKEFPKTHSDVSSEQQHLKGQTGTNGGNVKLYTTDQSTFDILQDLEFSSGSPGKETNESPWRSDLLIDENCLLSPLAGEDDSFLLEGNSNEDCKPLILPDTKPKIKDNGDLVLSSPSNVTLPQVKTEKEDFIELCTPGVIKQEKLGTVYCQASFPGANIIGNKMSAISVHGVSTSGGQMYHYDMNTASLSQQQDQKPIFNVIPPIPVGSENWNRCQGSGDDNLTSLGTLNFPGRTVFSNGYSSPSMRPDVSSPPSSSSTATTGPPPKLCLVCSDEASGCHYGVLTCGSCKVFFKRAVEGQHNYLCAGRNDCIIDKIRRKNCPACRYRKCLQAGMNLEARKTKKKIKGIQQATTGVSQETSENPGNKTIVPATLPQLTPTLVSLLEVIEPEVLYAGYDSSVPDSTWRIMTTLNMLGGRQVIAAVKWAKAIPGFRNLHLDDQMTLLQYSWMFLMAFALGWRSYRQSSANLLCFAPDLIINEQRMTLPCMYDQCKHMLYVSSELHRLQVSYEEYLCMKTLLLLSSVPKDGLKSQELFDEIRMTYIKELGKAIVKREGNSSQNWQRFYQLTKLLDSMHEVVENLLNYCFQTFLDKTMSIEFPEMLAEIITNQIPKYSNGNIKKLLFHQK
Experimental: Assay for Transrepression Activity of the Glucocorticoid Agonists
A549 cells stably transfected with a reporter gene containing the NF-κB responsive elements from the ELAM gene promoter coupled to sPAP (secreted alkaline phosphatase) are treated with test compounds at appropriate doses for 1 hour at 37° C. The cells are then stimulated with tumour necrosis factor (TNF, 10 ng/ml) for 16 hours, at which time the amount of alkaline phosphatase produced is measured by a standard colourimetric assay. Dose response curves were constructed from which EC50 values were estimated.

Progesterone Receptor = target: T2, Progesterone Receptor (Homo sapiens, UniProt P06401); assay: Assay for progesterone receptor activity (CV-1 cells transduced with PRb-BacMam and MMTV-BacMam, Steady Glo); settings: 24 h, read-out: pEC50 (progesterone receptor) (converted)
T2 construct: expressed in transfected cells; host or cells: CV-1 cells transduced with PRb-BacMam
T2 sequence (P06401 1-933): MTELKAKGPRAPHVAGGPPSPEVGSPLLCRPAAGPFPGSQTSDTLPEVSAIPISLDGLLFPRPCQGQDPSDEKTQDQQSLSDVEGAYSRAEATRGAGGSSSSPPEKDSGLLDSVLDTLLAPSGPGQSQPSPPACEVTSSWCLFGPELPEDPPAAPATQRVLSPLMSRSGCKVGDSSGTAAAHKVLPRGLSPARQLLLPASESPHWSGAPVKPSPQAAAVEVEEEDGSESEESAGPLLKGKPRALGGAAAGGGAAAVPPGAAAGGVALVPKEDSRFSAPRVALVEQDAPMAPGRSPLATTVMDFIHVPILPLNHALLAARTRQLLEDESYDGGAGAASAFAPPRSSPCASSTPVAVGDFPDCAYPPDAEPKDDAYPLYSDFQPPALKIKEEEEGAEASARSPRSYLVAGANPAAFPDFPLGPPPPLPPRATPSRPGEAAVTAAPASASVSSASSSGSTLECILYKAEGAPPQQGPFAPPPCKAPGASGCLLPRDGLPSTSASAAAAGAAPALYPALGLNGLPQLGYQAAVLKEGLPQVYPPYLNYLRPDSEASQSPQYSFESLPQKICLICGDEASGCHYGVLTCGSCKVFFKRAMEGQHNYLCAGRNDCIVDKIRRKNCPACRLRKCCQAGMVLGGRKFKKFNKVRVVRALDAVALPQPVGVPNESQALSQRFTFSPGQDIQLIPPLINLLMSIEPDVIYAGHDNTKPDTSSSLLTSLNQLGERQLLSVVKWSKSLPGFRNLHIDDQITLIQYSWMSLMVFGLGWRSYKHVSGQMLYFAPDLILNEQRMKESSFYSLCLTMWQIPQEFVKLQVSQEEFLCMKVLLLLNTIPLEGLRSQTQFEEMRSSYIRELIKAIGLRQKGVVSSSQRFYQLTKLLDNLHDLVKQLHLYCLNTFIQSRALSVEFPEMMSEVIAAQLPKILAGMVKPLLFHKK
Experimental: Assay for Progesterone Receptor Activity
Cells were diluted in DMEM containing 10% Hyclone, 2 mM […] and 1% Pen/Strep at 140 cells/μl and transduced with 10% PRb-BacMam and 10% MMTV-BacMam. […] of suspension cells were dispensed to each well of white Nunc 384-well plates, containing compounds at the required concentration. After 24 h 10 μl of Steady Glo were added to each well of the plates. Plates were incubated in the dark for 10 min before reading them on a Viewlux reader. Dose response curves were constructed from which pEC50 values were estimated.

glucocorticoid receptor [2] = target: T1, glucocorticoid receptor; assay: Assay for transactivation activity of the glucocorticoid agonists (MMTV-LTR renilla luciferase reporter in A549 cells); settings: compound 6 hour at 37° C., read-out: maximal response relative to Dexamethasone (100%) (transactivation)
Experimental: Assay for Transactivation Activity of the Glucocorticoid Agonists
The functional assay based on that described by R. J. H. Austin et al., Eur Resp J. (2002), 20, 1386-1392 measures the ability of compounds to directly transactivate gene expression. A549 cells stably transfected with a reporter gene containing the glucocorticoid responsive region of the mouse mammary tumour virus long terminal repeat (MMTV-LTR) coupled to renilla luciferase were treated with test compounds at appropriate doses for 6 hour at 37° C. The amount of luciferase activity present within the cells is then determined by measuring the light emitted following incubation with a suitable substrate. Dose response curves were constructed from which EC50 values were estimated and from which maximal responses are calculated relative to Dexamethasone (100%).

Q: `CCC(C)(C)OC(=O)O[C@]1(C(=O)OCF)[C@H](C)C[C@H]2[C@@H]3C[C@H](F)C4=CC(=O)C=C[C@]4(C)[C@@]3(F)[C@@H](O)C[C@@]21C` [Example 2, Fluoromethyl(6α,11β,16α,17α)-17-({[(1,1-dimethylpropyl)oxy]carbonyl}oxy)-6,9-difluoro-11-hydroxy-16-methyl-3-oxoandrosta-1,4-diene-17-carboxylate] was tested. Which IC50 (glucocorticoid receptor [1]) did it give?
A: < 0.1 nM

Q: What about the EC50 (Progesterone Receptor) of the same molecule?
A: > 10 nM

Q: How did the IC50 (glucocorticoid receptor [1]) turn out when `CCC(OC(=O)O[C@]1(C(=O)OCF)[C@H](C)C[C@H]2[C@@H]3C[C@H](F)C4=CC(=O)C=C[C@]4(C)[C@@]3(F)[C@@H](O)C[C@@]21C)C(C)C` (stereo partly drawn) [Example 8, Fluoromethyl(6α,11β,16α,17α)-17-({[(1-ethyl-2-methylpropyl)oxy]carbonyl}oxy)-6,9-difluoro-11-hydroxy-16-methyl-3-oxoandrosta-1,4-diene-17-carboxylate] was run?
A: < 0.1 nM

Q: And the EC50 (Progesterone Receptor)?
A: > 10 nM

Q: And the Emax (glucocorticoid receptor [2])?
A: < 25%

Q: How did the EC50 (Progesterone Receptor) turn out when `C[C@@H]1C[C@H]2[C@@H]3C[C@H](F)C4=CC(=O)C=C[C@]4(C)[C@@]3(F)[C@@H](O)C[C@]2(C)[C@@]1(OC(=O)OC1CCCCCC1)C(=O)OCF` [Example 14, Fluoromethyl(6α,11β,16α,17α)-17-{[(cycloheptyloxy)carbonyl]oxy}-6,9-difluoro-11-hydroxy-16-methyl-3-oxoandrosta-1,4-diene-17-carboxylate] was run?
A: > 10 nM

Q: What about the Emax (glucocorticoid receptor [2]) of the same molecule?
A: < 25%

Q: Which results are given for `C[C@@H]1C[C@H]2[C@@H]3C[C@H](F)C4=CC(=O)C=C[C@]4(C)[C@@]3(F)[C@@H](O)C[C@]2(C)[C@@]1(OC(=O)O[C@@H]1[C@@H]2CC[C@@H](C2)C1(C)C)C(=O)OCF` [Example 30, Fluoromethyl(6α,11β,16α,17α)-17-[({[(1R,2R,4S)-3,3-dimethylbicyclo[2.2.1]hept-2-yl]oxy}carbonyl)oxy]-6,9-difluoro-11-hydroxy-16-methyl-3-oxoandrosta-1,4-diene-17-carboxylate]?
A: IC50 (glucocorticoid receptor [1]): < 0.1 nM; EC50 (Progesterone Receptor): > 10 nM; Emax (glucocorticoid receptor [2]): < 25%

Q: For `CC(C)[C@H]1CC[C@H](C)C[C@@H]1OC(=O)O[C@]1(C(=O)OCF)[C@H](C)C[C@H]2[C@@H]3C[C@H](F)C4=CC(=O)C=C[C@]4(C)[C@@]3(F)[C@@H](O)C[C@@]21C` [Example 32, Fluoromethyl(6α,11β,16α,17α)-6,9-difluoro-11-hydroxy-16-methyl-17-[({[(1 S,2R,5S)-5-methyl-2-(1-methylethyl)cyclohexyl]oxy}carbonyl)oxy]-3-oxoandrosta-1,4-diene-17-carboxylate], which EC50 (Progesterone Receptor) is on record?
A: > 10 nM

Q: What about the Emax (glucocorticoid receptor [2]) of the same molecule?
A: < 25%

Q: What does the source list for `C[C@@H]1[C@H]2C[C@@H](C[C@H]1OC(=O)O[C@]1(C(=O)OCF)[C@H](C)C[C@H]3[C@@H]4C[C@H](F)C5=CC(=O)C=C[C@]5(C)[C@@]4(F)[C@@H](O)C[C@@]31C)C2(C)C` [Example 34, Fluoromethyl(6α,11β,16α,17α)-6,9-difluoro-11-hydroxy-16-methyl-3-oxo-17-[({[(1R,2R,3R,5S)-2,6,6-trimethylbicyclo[3.1.1]hept-3-yl]oxy}carbonyl)oxy]androsta-1,4-diene-17-carboxylate]?
A: EC50 (Progesterone Receptor): > 10 nM; Emax (glucocorticoid receptor [2]): < 25%

Q: How did the EC50 (Progesterone Receptor) turn out when `CCC(OC(=O)O[C@]1(C(=O)OCF)[C@H](C)C[C@H]2[C@@H]3C[C@H](F)C4=CC(=O)C=C[C@]4(C)[C@@]3(F)[C@@H](O)C[C@@]21C)C(C)(C)C` (stereo partly drawn) [Example 38, Fluoromethyl(6α,11β,16α,17α)-17-({[(1-ethyl-2,2-dimethylpropyl)oxy]carbonyl}oxy)-6,9-difluoro-11-hydroxy-16-methyl-3-oxoandrosta-1,4-diene-17-carboxylate] was run?
A: > 10 nM

Q: And the Emax (glucocorticoid receptor [2])?
A: < 25%
